Data published in patent publication US5719296A, “Pseudopeptide lactam inhibitors of peptide binding to MHC class II proteins” (Merck & Co., Inc., priority 1996, dated 1998).
Read-outs that look alike come from different tables or passages of the source.

Biological target: T1, DR1Dw1 (Homo sapiens, UniProt P01903+P01911, A100R/D57E/F55L/F60I/F76Y/I96L/L162R/M171V/P40L/Q125E/R42F/V115G/Y59C)
T1 construct: these are Drosophila transmembrane DR; made in house; host or cells: Drosophila (cells)
Experiment: Inhibition assay: inhibition of biotinylated RMBP 90-102 peptide binding to MHC class II DR1
Procedure: For direct binding assays, optimal concentrations of affinity purified DR1Dwl (1.25 nM) or DR4Dw4 (10 nM) are incubated with serial dilutions of biotinylated rat myelin basic protein (RMBP) 90-102 in PBS (phosphate buffered saline) containing 0.75% octyl glucoside, pH 6.5, in 96-well polypropylene plates for 16 to 20 h at 37° C. In studies optimizing the assay it was determined that only between 5 to 10% of the DR molecules are capable of binding added peptide. Therefore, the effective concentration of DR1Dw1 and DR4Dw4 was approximately 0.125 and 1.0 nM, respectively. […] The DR-peptide complexes (50 μL) are transferred to wells of a 96-well EIA plate precoated with LB3.1, the monoclonal antibody which recognizes the DR alleles of MHC Class II, and blocked with PBS with fetal calf serum (FCS). An additional 50 μL of 50 mM Tris, pH 7.0, containing 0.75% octyl glucoside is added to each well and the mixture incubated overnight at 4° C. Excess peptide is removed by washing with PBS containing 0.05% Tween 20 (Polyoxyethylene sorbitan monolaurate) and 0.01% NAN3. Europium-labeled streptavidin (Wallac Inc.) is added and incubated overnight. After washing, complexes are measured by the addition of Enhance™ buffer, the tradename for 0.1 M acetate phthalate buffer, pH 3.2, containing 0.1% Triton X-100, tradename for polyoxyethylene ethers and other surface active compounds of Union Carbide Chemicals and Plastics Co., Inc. (particularly, a non-ionic surfactant for recovery of membrane components under non-denaturing conditions) 15 µM 2-naphthoyltrifluoroacetone, and 50 μM tri-N-octylphosphine oxide, which buffer releases the chelated europium from streptavidin and forms a highly fluorescent micellar solution. The resultant fluorescence is measured using a fluorescent plate reader (e.g., DELPHIA, Wallac, Inc.). The data are analyzed using a four-parameter logistical curve […] program (e.g., SigmaPlot) that calculates the concentration of biotinylated peptide giving a half-maximal signal (ED50).
The inhibition assay format is identical to the procedure described above with the exception that the unlabeled antagonist is serially diluted and incubated with constant concentrations of biotinylated RMBP 90-102 (0.3 nM for DR1Dw1 or 0.9 nM for DR4Dw4) and the MHC class II proteins. The concentration of unlabeled compound that prevents 50% of the labeled peptide from binding is the IC50 value. The concentration of the biotinylated RMBP 90-102 in each assay is experimentally determined to be […] one-sixth of its measured ED50 to assure the inhibition was primarily measuring the binding characteristics of the competitor.
In particular, a protocol for carrying out the inhibition assay is given below.
Preparation of Antibody Plate
Add 115 μL of 5 μg/mL LB3.1 in 50 mM Tris HCl pH 9.6/azide to each well of a Costar EIA plate. Incubate the plate overnight at 4° C.
Wash the plate 4 times with water/0.05% Tween-20/azide. Add 200 μL of PBS/5% FCS/azide for 1 hour at 4° C. to block the plate. The plate may be held at this point for later use or used immediately.
Flip out the block. It is not necessary to wash the plate. At 50 μL of load buffer (50 mM Tris HCl, pH 8.0 0.75% octylglucoside). Add to this volume 50 μL of the reaction mix from day 2, step 3 below.
Preparation of Reaction Mixture
(1) Add the following to a polypropylene round bottom 96-well plate such as a Costar #3794:
(A) Diluent (Ca Mg free PBS adjusted to pH 6.5 with 0.1 M KH2 PO4/0.75% octylglucoside/azide).81 μL
(B) Competitor at 16.6 times the final concentration in diluent or diluent alone. 9 μL
(C) Biotinylated RMBP (BRMBP) 90-102; 1.5 nM for DR1 or 4.5 nM for DR4 (These are 5 × stocks of final concentrations of 0.3 nM/DR1 or 0.9 nM/DR4)
(D) 6.25 nM DR1Dw1 or 50 nM DR4Dw4 (these are Drosophila transmembrane DR) (This is a 5× stock of the final concentration of 1.25 or 10 nM.) 30 μL Add the DR last and mix well at this time 150 μL
(2) Incubate at 37° C. for 20 min and 5 hours. […]

[1] = 20 min incubation at 37° C., 0.3 nM biotinylated RMBP 90-102, 1.25 nM DR1Dw1, pH 6.5, read-out: IC50 /μM @ 20'
[2] = 5 hours incubation at 37° C., 0.3 nM biotinylated RMBP 90-102, 1.25 nM DR1Dw1, pH 6.5, read-out: IC50 /μM @ 5 h

Substance	IC50 [1]	IC50 [2]
EtOCO-Phe-(S)-γ-Lactam-Nva-Leu-NH2 [Example 21]	3.1 µM	10.5 µM
EtOCO-Phe-(S)-δ-Lactam-L-Nva-Leu-NH2 [27(61)]	3.4 µM	10 µM
[4H]-Naphthyl-CH2 -(R)-γ-Lactam-Nva-Leu-NH2 [Example 50]	2.5 µM	23.5 µM
cHp(CH2)3 -(R)-γ-Lactam-Nva-Leu-NH2 [Example 14]	0.34 µM	2.9 µM
cHp(CH2)3 -α-Propyl-(R)-γ-Lactam-Nva-Leu-NH2 [Example 32]	0.15 µM	1.4 µM
cHx((CH3)C=CHCH2)-(R)-γ-Lactam-Nva-Leu-NH2 [Example 11]	0.76 µM	5.2 µM
cHx((CH3)CHCH2 CH2 NH)-(R)-γ-Lactam-Nva-Leu-NH2 [Example 12]	0.65 µM	5.6 µM
cHx(CH2)3 -α-(3-Aminopropyl)-(R)-γ-Lactam-Nva-NHNBu(COOEt) [Example 53]	0.68 µM	3.1 µM
cHx(CH2)3 -α-(3-Hydroxypropyl)-(R)-γ-Lactam-Nva-Leu-NH2 [Example 33]	0.13 µM	0.86 µM
cHx(CH2)3 -α-(3-Hydroxypropyl)-(R)-γ-Lactam-Nva-NHNBu(COOEt) [Example 51]	0.16 µM	0.63 µM
cHx(CH2)3 -α-(3-guanidinopropyl)-(R)-γ-Lactam-Nva-NHNBu(COOEt) [Example 54]	0.21 µM	0.93 µM
cHx(CH2)3 -α-propyl-(R)-γ-Lactam-Nva-NHNBu(COOEt) [Example 35]	0.25 µM	2 µM
cHx(CH23 -α-(3-Azidopropyl)-(R)-γ-Lactam-Nva-NHNBu(COOEt) [Example 52]	0.16 µM	0.62 µM
